Laboratory results as given in patent US11712434B2, “Compound having anti-cancer effect, and preparation method therefor and use thereof” (3D MEDICINES (BEIJING) CO., LTD., priority 2016, dated 2023).

Experiments:
NCI-H1648 = assay: Cell proliferation assay (Alamar Blue); format: cell-based; details: Homo sapiens, 144 h; NCI-H1648 tumor cell line; 6 days culture
Method: (§1) 1. Instruments and Materials • Thermo 311 CO2 incubator; Haier biosafety cabinet; Molecular Devices microplate reader; Xiangyi brand L530 desktop low speed centrifuge; Olympus IX51 inverted fluorescence microscope, DMEM, RPMI 1640, MEM, DMEM/F12 1:1 medium, Fetal bovine serum, 0.25% trypsin solution, phosphate buffer (Thermo Fisher Shanghai Co., Ltd.); sigma dimethyl sulfoxide (DMSO), resazurin; 54 commercial tumor cell lines (including 26 liver cancer cell lines). Experimental drugs: compounds 1-12 and active drug Linifanib; chemotherapeutic drug Doxorubicin (HY-15142; Shanghai Qianyuan Biomedical Technology Co., Ltd.).
(§2) 2. Experimental Methods • 2.1 Cultivation of Different Cell Lines • 54 cell lines were cultured in a culture medium containing fetal bovine serum and placed in a 5% CO2 incubator at 37° C. for incubation. The cells were all grown in an adherent state, and the growth was observed under an inverted microscope, and subculture was performed when the cell confluence rate reached 80%-90%. The proportion and quantity of passage were determined by experimental needs. The ratio of subculture of this cell line was generally 1:2^˜1:3. • 2.2 Inhibition Effect on the Proliferation of Different Tumor Cell Lines • Cell test: 54 cell lines in logarithmic growth phase were inoculated in 96-well culture plates at 500^˜1×10^4/well (the optimal seeding density of each cell line was determined in pre-experiment), After incubating at 37° C. for 4 h in a 5% CO2 humidification incubator, added 10 μL of compounds 1-12 or Linifanib to each well, and tested 9 drug concentration gradients for each compound (diluted from the highest concentration of the test by 3.16 times). The solubility of each compound was different at a starting concentration of 100 or 30 μM, respectively. The QC reference compound Doxorubicin was added simultaneously to each cell line test, and the final drug concentrations were 10, 3.16, 1, 0.31, 0.1, 0.03, 0.01, 0.003, and 0.001 μM, respectively. In addition, a positive control group (100% inhibition) and a negative control group (0% inhibition) were set at the same time. The drug group was repeated for 2 wells per concentration, and the positive control group and the negative control group were repeated for 6 wells. After the culture was continued for 6 days in the incubator, AlamarBlue test operation was followed; • AlamarBlue test procedure: Incubated with 10 μL of AlamarBlue reagent per well for 1-4 h, shook for 1-2 min, MD microplate reader EX: 560 nm, EM: 590 nm wavelength to measure fluorescence, recorded the results, calculated the cell inhibition rate of the compound of the invention. Cell inhibition rate (%)=(A0% inhibition−A administration)/(A0% inhibition−A100% inhibition)×100%, and then using the method of nonlinear regression using GraphPad Prism 5.0 or MATILAB software (usually using four parameters) to graph and obtain a drug dose response curve to obtain an IC50 value of the compound of the present invention acting on a cancer cell line.

NCI-H1703 = assay: Cell proliferation assay (Alamar Blue); format: cell-based; details: Homo sapiens, 144 h; NCI-H1703 (lung cancer cells); 6 days culture
Method: as §1, §2

NCI-H2170 = assay: Cell proliferation assay (Alamar Blue); format: cell-based; details: Homo sapiens, 144 h; NCI-H2170 tumor cell line; 6 days culture
Method: as §1, §2

NCI-H526 = assay: Cell proliferation assay (Alamar Blue); format: cell-based; details: Homo sapiens, 144 h; NCI-H526 tumor cell line; 6 days culture
Method: as §1, §2

NCI-H661 = assay: Cell proliferation assay (Alamar Blue); format: cell-based; details: Homo sapiens, 144 h; NCI-H661 tumor cell line; 6 days culture
Method: as §1, §2

NCI-H716 = assay: Cell proliferation assay (Alamar Blue); format: cell-based; details: Homo sapiens, 144 h; NCI-H716 tumor cell line; 6 days culture
Method: as §1, §2

liver cancer = liver cancer patients, phase III; cited from earlier work

Row | SMILES | IC50 (NCI-H1648) [µM] | IC50 (NCI-H1703) [µM] | IC50 (NCI-H2170) [µM] | IC50 (NCI-H526) [µM] | IC50 (NCI-H661) [µM] | IC50 (NCI-H716) [µM] | toxicity and side effects (liver cancer) | ORR (overall response rate) (liver cancer) [%] | TTP (time to progression) (liver cancer) [months]
1 | Cc1ccc(F)c(NC(=O)Nc2ccc(-c3cccc4[nH]nc(N)c34)cc2)c1 [Linifanib, reference compound] | 7.17 | 0.02 | 4 | 7.8 | 13.3 | 4.1 | greater than Sorafenib |  | 
2 | CNC(=O)c1cc(Oc2ccc(NC(=O)Nc3ccc(Cl)c(C(F)(F)F)c3)cc2)ccn1 [Sorafenib] |  |  |  |  |  |  |  | 6.9 | 4.0
